PMC7265341, “Quantifying CDK inhibitor selectivity in live cells” (Nature Communications, 2020)
Like-named read-outs stand apart in the source and are kept apart here.

Columns and labels:
Format in all cases: binding
[1] = target: CDK1/Cyclin E1 (Homo sapiens, UniProt P06493); experiment: NanoBRET live-cell target engagement, CDK1-NanoLuc/Cyclin E1 in HEK-293; conditions: for inhibition at 10 µM: read-out: CDK1/E1 Inhibition at 10µM (%); for IC50: read-out: CDK1/E1 IC50
[2] = target: CDK2/Cyclin E1 (Homo sapiens, UniProt P24941); experiment: NanoBRET live-cell target engagement, CDK2-NanoLuc/Cyclin E1 in HEK-293; conditions: for inhibition at 10 µM: read-out: CDK2/E1 Inhibition at 10µM (%); for CDK2 Occupancy (%): Panel A
[3] = target: CDK3/Cyclin E1 (Homo sapiens, UniProt Q00526); experiment: NanoBRET live-cell target engagement, CDK3-NanoLuc/Cyclin E1 in HEK-293; conditions: for inhibition at 10 µM: read-out: CDK3/E1 Inhibition at 10µM (%); for IC50: read-out: CDK3/E1 IC50
Sequence of CDK3/Cyclin E1 (Q00526 whole entry): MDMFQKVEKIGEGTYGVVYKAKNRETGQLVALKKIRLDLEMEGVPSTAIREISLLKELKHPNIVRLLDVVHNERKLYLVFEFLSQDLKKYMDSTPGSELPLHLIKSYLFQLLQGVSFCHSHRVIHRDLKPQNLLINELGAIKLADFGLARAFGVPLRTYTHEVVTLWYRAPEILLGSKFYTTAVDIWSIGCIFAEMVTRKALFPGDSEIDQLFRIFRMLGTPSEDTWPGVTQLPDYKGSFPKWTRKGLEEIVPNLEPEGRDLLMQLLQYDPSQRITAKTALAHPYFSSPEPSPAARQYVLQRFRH
Sequence of CDK3/Cyclin E1 (P24864 whole entry partner): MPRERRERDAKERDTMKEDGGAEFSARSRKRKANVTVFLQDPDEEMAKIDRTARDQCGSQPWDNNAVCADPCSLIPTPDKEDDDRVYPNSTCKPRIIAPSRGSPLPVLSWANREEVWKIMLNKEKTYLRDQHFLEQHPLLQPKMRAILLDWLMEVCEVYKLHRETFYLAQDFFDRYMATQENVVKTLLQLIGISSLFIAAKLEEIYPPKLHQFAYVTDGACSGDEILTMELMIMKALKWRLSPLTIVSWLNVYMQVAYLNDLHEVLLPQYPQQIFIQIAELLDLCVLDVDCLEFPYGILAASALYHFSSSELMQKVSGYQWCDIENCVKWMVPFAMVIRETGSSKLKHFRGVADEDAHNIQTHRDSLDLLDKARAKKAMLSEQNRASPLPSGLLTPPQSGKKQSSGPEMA

[4] = target: CDK4/Cyclin D1 (Homo sapiens, UniProt P11802); experiment: NanoBRET live-cell target engagement, NanoLuc-CDK4/Cyclin D1 in HEK-293; conditions: for inhibition at 10 µM: read-out: CDK4/D1 Inhibition at 10µM (%); for IC50: read-out: CDK4/D1 IC50
Sequence of CDK4/Cyclin D1 (P11802 whole entry): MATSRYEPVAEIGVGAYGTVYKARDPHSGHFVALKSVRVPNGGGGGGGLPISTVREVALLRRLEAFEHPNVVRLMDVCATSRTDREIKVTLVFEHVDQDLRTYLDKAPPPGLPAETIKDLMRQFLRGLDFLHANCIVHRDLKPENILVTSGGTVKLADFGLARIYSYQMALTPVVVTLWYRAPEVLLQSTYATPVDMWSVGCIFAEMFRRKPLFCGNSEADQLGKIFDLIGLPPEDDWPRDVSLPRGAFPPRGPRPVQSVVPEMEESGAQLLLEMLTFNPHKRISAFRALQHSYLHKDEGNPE
Sequence of CDK4/Cyclin D1 (P24385 whole entry partner): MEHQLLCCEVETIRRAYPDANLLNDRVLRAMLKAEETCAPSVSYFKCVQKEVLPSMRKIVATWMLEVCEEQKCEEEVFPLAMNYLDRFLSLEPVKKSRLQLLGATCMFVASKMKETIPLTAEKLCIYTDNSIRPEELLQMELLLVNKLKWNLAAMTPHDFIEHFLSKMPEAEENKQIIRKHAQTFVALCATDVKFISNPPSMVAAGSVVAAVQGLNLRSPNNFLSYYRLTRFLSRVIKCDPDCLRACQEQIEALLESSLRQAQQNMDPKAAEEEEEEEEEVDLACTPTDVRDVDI

[5] = target: CDK5/CDK5R1 (Homo sapiens, UniProt Q00535); experiment: NanoBRET live-cell target engagement, CDK5-NanoLuc/CDK5R1 in HEK-293; conditions: for inhibition at 10 µM: read-out: CDK5/CDK5R1 Inhibition at 10µM (%); for IC50: read-out: CDK5/CDK5R1 IC50
Sequence of CDK5/CDK5R1 (Q00535 whole entry): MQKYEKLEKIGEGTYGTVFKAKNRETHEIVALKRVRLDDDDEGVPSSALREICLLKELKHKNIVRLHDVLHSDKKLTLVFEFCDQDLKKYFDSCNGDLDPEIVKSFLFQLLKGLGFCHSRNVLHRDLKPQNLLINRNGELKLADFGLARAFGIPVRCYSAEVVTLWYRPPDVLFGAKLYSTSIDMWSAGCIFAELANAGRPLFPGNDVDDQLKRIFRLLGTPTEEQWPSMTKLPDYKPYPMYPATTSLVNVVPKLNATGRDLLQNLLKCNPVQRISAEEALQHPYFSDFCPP
Sequence of CDK5/CDK5R1 (Q15078 whole entry partner): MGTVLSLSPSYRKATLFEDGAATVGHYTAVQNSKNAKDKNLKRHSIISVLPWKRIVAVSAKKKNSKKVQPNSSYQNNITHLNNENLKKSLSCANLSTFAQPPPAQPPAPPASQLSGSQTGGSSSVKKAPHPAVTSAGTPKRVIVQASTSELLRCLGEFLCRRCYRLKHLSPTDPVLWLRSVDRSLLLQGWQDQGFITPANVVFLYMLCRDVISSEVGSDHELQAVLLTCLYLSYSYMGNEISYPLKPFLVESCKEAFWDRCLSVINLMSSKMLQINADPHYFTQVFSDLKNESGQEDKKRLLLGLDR

[6] = target: CDK6/Cyclin D1 (Homo sapiens, UniProt Q00534); experiment: NanoBRET live-cell target engagement, NanoLuc-CDK6/Cyclin D1 in HEK-293; conditions: for inhibition at 10 µM: read-out: CDK6/D1 Inhibition at 10µM (%); for CDK6 Occupancy (%): Panel A
Sequence of CDK6/Cyclin D1 (Q00534 whole entry): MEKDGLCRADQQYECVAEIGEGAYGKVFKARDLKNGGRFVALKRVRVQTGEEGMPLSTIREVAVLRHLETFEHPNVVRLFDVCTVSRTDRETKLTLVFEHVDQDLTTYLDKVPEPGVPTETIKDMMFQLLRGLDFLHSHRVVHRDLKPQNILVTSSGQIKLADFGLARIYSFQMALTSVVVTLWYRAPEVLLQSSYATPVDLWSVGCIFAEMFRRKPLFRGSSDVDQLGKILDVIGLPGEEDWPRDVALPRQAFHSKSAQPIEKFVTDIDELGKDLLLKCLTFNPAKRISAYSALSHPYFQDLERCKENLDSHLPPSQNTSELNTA
Sequence of CDK6/Cyclin D1 (P24385 whole entry partner): as the sequence (P24385 whole entry partner) above

[7] = target: CDK7 (Homo sapiens, UniProt P50613); experiment: NanoBRET live-cell target engagement, NanoLuc-CDK7 in HEK-293; conditions: 10µM, read-out: CDK7 Inhibition at 10µM (%)
Sequence of CDK7 (P50613 whole entry): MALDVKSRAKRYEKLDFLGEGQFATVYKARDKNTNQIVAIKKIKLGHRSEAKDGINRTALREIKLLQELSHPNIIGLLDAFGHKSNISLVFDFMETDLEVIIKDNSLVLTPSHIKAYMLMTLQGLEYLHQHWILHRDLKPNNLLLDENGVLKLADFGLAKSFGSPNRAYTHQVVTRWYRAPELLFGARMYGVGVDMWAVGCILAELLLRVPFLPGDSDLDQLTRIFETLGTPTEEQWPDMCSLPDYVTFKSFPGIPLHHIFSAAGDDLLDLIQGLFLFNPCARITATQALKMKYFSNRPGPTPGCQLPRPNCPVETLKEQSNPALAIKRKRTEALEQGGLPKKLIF

[8] = LOG10([RGB-286638]) 0.045757 LOG10(µM)
[9] = LOG10([RGB-286638]) 0.522879 LOG10(µM)
[10] = LOG10([RGB-286638]) 1 LOG10(µM)
[11] = LOG10([RGB-286638]) -0.43136 LOG10(µM)
[12] = LOG10([RGB-286638]) -0.90849 LOG10(µM)
[13] = LOG10([RGB-286638]) -1.38561 LOG10(µM)
[14] = LOG10([RGB-286638]) -1.86273 LOG10(µM)
[15] = LOG10([RGB-286638]) -2.33985 LOG10(µM)
[16] = LOG10([RGB-286638]) -2.81697 LOG10(µM)
[17] = LOG10([RGB-286638]) -3.29409 LOG10(µM)
[18] = LOG10([RGB-286638]) -3.77121 LOG10(µM)

Sequence of CDK1/Cyclin E1 (P06493 whole entry): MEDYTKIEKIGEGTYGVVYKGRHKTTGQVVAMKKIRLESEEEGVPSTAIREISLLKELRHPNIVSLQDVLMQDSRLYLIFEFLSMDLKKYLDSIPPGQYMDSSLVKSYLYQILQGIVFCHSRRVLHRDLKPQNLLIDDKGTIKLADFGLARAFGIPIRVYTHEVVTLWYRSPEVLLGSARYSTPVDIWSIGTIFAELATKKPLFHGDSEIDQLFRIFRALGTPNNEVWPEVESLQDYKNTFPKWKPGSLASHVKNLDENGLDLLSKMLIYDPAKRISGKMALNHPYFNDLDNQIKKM
Sequence of CDK1/Cyclin E1 (P24864 whole entry partner): as the sequence (P24864 whole entry partner) above

COCCN1CCN(Cc2ccc(-c3n[nH]c4c3C(=O)c3c(NC(=O)NN5CCOCC5)cccc3-4)cc2)CC1 [RGB286638] was tested, and the inhibition at 10 µM ([1]; average of experiments) was 87.9%, the inhibition at 10 µM ([1]; independent experiment 1) was 79.8% and the inhibition at 10 µM ([1]; independent experiment 2) was 96%. It also gave an IC50 ([1]; average (± SEM where n=3)) of 39 nM, an IC50 ([1]; independent experiment 1) of 37 nM and an IC50 ([1]; independent experiment 2) of 41 nM. The inhibition at 10 µM ([2]; average of experiments) was 84.4%, the inhibition at 10 µM ([2]; independent experiment 1) was 83.7% and the inhibition at 10 µM ([2]; independent experiment 2) was 85.1%. The “CDK2 Occupancy (%)” value [2, 8] was 96.9519%, the “CDK2 Occupancy (%)” value [2, 9] was 98.1016% and the “CDK2 Occupancy (%)” value [2, 10] was 98.1016%. For the same molecule, the “CDK2 Occupancy (%)” value [2, 11] was 95.1872%, the “CDK2 Occupancy (%)” value [2, 12] was 90.2941% and the “CDK2 Occupancy (%)” value [2, 13] was 78.6096%. The “CDK2 Occupancy (%)” value [2, 14] was 57.754%, the “CDK2 Occupancy (%)” value [2, 15] was 30.4813% and the “CDK2 Occupancy (%)” value [2, 16] was 11.4973%. For the same molecule, the “CDK2 Occupancy (%)” value [2, 17] was 5.615%, the “CDK2 Occupancy (%)” value [2, 18] was 0.2674% and the IC50 ([2]; average (± SEM where n=3), read-out: CDK2/E1 IC50) was 14 ± 5 nM. It also gave an IC50 ([2]; independent experiment 1, read-out: CDK2/E1 IC50) of 8.9 nM, an IC50 ([2]; independent experiment 2, read-out: CDK2/E1 IC50) of 9.8 nM and an IC50 ([2]; independent experiment 3, read-out: CDK2/E1 IC50) of 23 nM. The IC50 ([2]; live HEK-293, 2 h, mean ± S.E.M. (n=3) or mean (n=2), read-out: IC50 for CDK/cyclin complexes, CDK2/E1) was 12 to 16 nM, the inhibition at 10 µM ([3]; average of experiments) was 91.3% and the inhibition at 10 µM ([3]; independent experiment 1) was 89.1%. For the same molecule, the inhibition at 10 µM ([3]; independent experiment 2) was 93.6%, the IC50 ([3]; average (± SEM where n=3)) was 12 nM and the IC50 ([3]; independent experiment 1) was 14 nM. It also gave an IC50 ([3]; independent experiment 2) of 10 nM, an inhibition at 10 µM ([4]; average of experiments) of 99.8% and an inhibition at 10 µM ([4]; independent experiment 1) of 99.7%. The inhibition at 10 µM ([4]; independent experiment 2) was 100%, the IC50 ([4]; average (± SEM where n=3)) was 10 nM and the IC50 ([4]; independent experiment 1) was 9.6 nM. For the same molecule, the IC50 ([4]; independent experiment 2) was 11 nM, the inhibition at 10 µM ([5]; average of experiments) was 84.4% and the inhibition at 10 µM ([5]; independent experiment 1) was 71.7%. For the same molecule, the inhibition at 10 µM ([5]; independent experiment 2) was 97.2%, the IC50 ([5]; average (± SEM where n=3)) was 75 nM and the IC50 ([5]; independent experiment 1) was 80 nM. The IC50 ([5]; independent experiment 2) was 70 nM, the inhibition at 10 µM ([6]; average of experiments) was 99.1% and the inhibition at 10 µM ([6]; independent experiment 1) was 98.9%. For the same molecule, the inhibition at 10 µM ([6]; independent experiment 2) was 99.4%, the “CDK6 Occupancy (%)” value [6, 8] was 96.3121% and the “CDK6 Occupancy (%)” value [6, 9] was 95.6738%. The “CDK6 Occupancy (%)” value [6, 10] was 95.6028%, the “CDK6 Occupancy (%)” value [6, 11] was 95.1064% and the “CDK6 Occupancy (%)” value [6, 12] was 90.4255%. The “CDK6 Occupancy (%)” value [6, 13] was 76.8794%, the “CDK6 Occupancy (%)” value [6, 14] was 49.6454% and the “CDK6 Occupancy (%)” value [6, 15] was 19.8582%. The “CDK6 Occupancy (%)” value [6, 16] was 7.0922%, the “CDK6 Occupancy (%)” value [6, 17] was 2.128% and the “CDK6 Occupancy (%)” value [6, 18] was 0%. For the same molecule, the IC50 ([6]; average (± SEM where n=3), read-out: CDK6/D1 IC50) was 12 ± 1 nM, the IC50 ([6]; independent experiment 1, read-out: CDK6/D1 IC50) was 13 nM and the IC50 ([6]; independent experiment 2, read-out: CDK6/D1 IC50) was 9.7 nM. It also gave an IC50 ([6]; independent experiment 3, read-out: CDK6/D1 IC50) of 14 nM, an IC50 ([6]; live HEK-293, 2 h, mean ± S.E.M. (n=3) or mean (n=2), read-out: IC50 for CDK/cyclin complexes, CDK6/D1) of 12 to 16 nM and an inhibition at 10 µM ([7]; average of experiments) of 93.9%. For the same molecule, the inhibition at 10 µM ([7]; independent experiment 1) was 91%.
